Holding throughout (type): cell-based
One assay deals with Aspergillus flavus. Briefly: MIC, YAG medium, Aspergillus flavus. The note with it: YAG medium; for MIC: Aspergillus flavus, read-out: MIC A Flavus 01. The protocol: (§1) Measurement of Minimum Inhibitory Concentrations (MICs)
(§2) Between 1 and 5 mgs of compound were accurately weighed out into a sterile Eppendorf tube. The compound was dissolved in DMSO to give a solution containing 5 mg/ml. Tubes were stored at −20° C. until required.
(§3) On the day of testing thawed solutions were vortex mixed to ensure homogeneity. 30 μl of solution was removed and added to 570 μl of sterile water in a separate sterile Eppendorf. The thoroughly mixed solution was used to prepare a series of doubling dilutions in water, in a deep well plate. Eleven replicate plates were prepared using a Minitrak by aspirating 20 μl from each well into eleven clear polystyrene 96 well plates.
(§4) Spores of Aspergillus spp (Aspergillus fumigatus, Aspergillus terreus, Aspergillus niger and Aspergillus flavus) were harvested from cultures grown on Sabarauds agar for 5 days, and resuspended in PBS/Tween 80 to approx 1×10^7 cfu/ml Other filamentous fungi (Fusarium solani, Scedosporium spp., Trichophyton spp., Absidia corymbifera), were grown on Sabarauds agar for 2-10 days and spores/hyphae resuspended in PBS/Tween to give approx 1×10^7 cfU/ml. Candida species (Candida albicans, Candida glabrata, Candida krusei, Candida parapsilosis and Candida tropicalis) were grown on Sabarauds agar, cells were harvested from the agar using a sterile loop and resuspended in PBS/Tween 80 to approx 1×10^6 cfu/ml. Each organism suspension was diluted in RPMI medium, containing 2% glucose and 0.135M MOPS buffer (pH7.0) to 2×10^4 cfu/ml for Aspergillus spp and other filamentous fungi and 2×10^3 cfu/ml for yeast. 80 μl of an organism suspension was added to each well of the plate containing drug dilutions.
(§5) This produced MIC plates with a drug range 50-0.05 mg/L and organism inocula of 1-2×10^4 cfu/ml for Aspergillus spp and other filamentous fungi and 1-2×10^3 cfu/ml for yeasts. All plates were incubated for 24-48 hrs at 35° C. Growth was assessed by monitoring the optical density at 485 nm for each well. The MIC of a compound is the lowest drug concentration that inhibits growth of an organism by >80% compared with a drug free control. MICs are recorded as mg/L. Other growth media can be used for susceptibility testing, and the activity of the described compounds can also be assessed in a medium comprising, 1% glucose, 1% ammonium chloride and 0.5% yeast extract (YAG medium). To perform MIC tests in this medium, dilutions of compounds are prepared in microtitre plates as described above. Fungal strains to be tested are grown and harvested in an identical manner to that described above, each organism suspension is then diluted in YAG medium to 2×10^4 cfu/ml for Aspergillus spp and other filamentous fungi and 2×10^3 cfu/ml for yeast. 80 μl of an organism suspension was added to each well of the plate containing drug dilutions. This produced MIC plates with a drug range 50-0.05 mg/L and organism inocula of 1-2×10^4 cfu/ml for Aspergillus spp and other filamentous fungi and 1-2×10^3 cfu/ml for yeasts. All plates were incubated for 24 hrs at 35° C. Growth was assessed by monitoring the optical density at 485 nm for each well. The MIC of a compound is the lowest drug concentration that inhibits growth of an organism by >70% compared with a drug free control. MICs are recorded as mg/L. In cases where the MIC of an organism is […]0.05 mg/L the MIC is repeated using a concentration range of 0.5-0.0005 mg/L. MIC tests in YAG medium have more clear-cut endpoints and have slightly lower MICS than those performed in RPMI medium.
(§6) The following organisms were tested: Aspergillus fumigatus AF293 and Aspergillus fumigatus AF210, Aspergillus niger, Aspergillus terreus, Aspergillus favus, Candida albicans, Candida krusei, Candida tropicalis, Candida glabrata, Candida parapsilosis, Trichophyton rubrum, Trichophyton mentagrophytes, Scedosporium prolificans, Scedosporium apiospermum, Absidia corymbifera, Fusarium solani.

Assay [1] concerns Aspergillus fumigatus AF293. Briefly: MIC, YAG medium, Aspergillus fumigatus AF293. The note with it: YAG medium; for MIC: Aspergillus fumigatus, AF293, read-out: MIC A Fum. 293. The protocol: as §1, §2, §3, §4, §5, §6
A further assay has as its system Aspergillus niger. Briefly: MIC, YAG medium, Aspergillus niger. The note with it: YAG medium; for MIC: Aspergillus niger, read-out: MIC A Niger 1. How it is done: as §1, §2, §3, §4, §5, §6
A further assay relates to Aspergillus terreus. Briefly: MIC, YAG medium, Aspergillus terreus. The note with it: YAG medium; for MIC: Aspergillus terreus, read-out: MIC A Terreus 4. The protocol: as §1, §2, §3, §4, §5, §6
In assay [2] the test system is Aspergillus fumigatus AF210. Briefly: MIC, YAG medium, Aspergillus fumigatus AF210. The conditions noted are these: YAG medium; for MIC: Aspergillus fumigatus, AF210, read-out: MIC A Fum. 210. The protocol: as §1, §2, §3, §4, §5, §6

We go through 18 compounds from US8486962B2, “Antifungal agents” (F2G Ltd., priority 2005, dated 2013).

Structures are written as SMILES. Values after ≈ are worked out from the molar mass of the structure shown.

The term MIC denotes the lowest concentration that inhibits growth of the organism. With `COc1ccc(NC(=O)C(=O)c2c(-c3ccccc3)cc3cc(C)ccn23)cn1` [Example 193, N-(6-Methoxy-pyridin-3-yl)-2-(7-methyl-2-phenyl-indolizin-3-yl)-2-oxo-acetamide], the MIC is 6.25 µg/mL (≈ 16.2 µM) in the assay on Aspergillus flavus; greater than 50 µg/mL in assay [1]; greater than 50 µg/mL in the assay with Aspergillus niger; 0.8 µg/mL (≈ 2.08 µM) with Aspergillus terreus; greater than 50 µg/mL in assay [2].

Regarding `COc1ccc(NC(=O)C(=O)c2c(-c3ccccc3)cc3c(C)cccn23)cn1` [Example 194, N-(6-Methoxoy-pyridin-3-yl)-2-(8-methyl-2-phenyl-indolizin-3-yl)-2-oxo-acetamide], the “MIC A Flavus 01” value against Aspergillus flavus is greater than 50 µg/mL. For the same compound, the “MIC A Fum. 293” value in assay [1] was greater than 50 µg/mL. Moreover, in the assay with Aspergillus niger, the “MIC A Niger 1” value is greater than 50 µg/mL. In addition, in the assay on Aspergillus terreus, the “MIC A Terreus 4” value turned out to be 25 µg/mL (≈ 64.9 µM). In assay [2], the “MIC A Fum. 210” value is greater than 50 µg/mL.

On to `COc1ccc2cc(-c3ccccc3)c(C(=O)C(=O)Nc3ccc(OC)nc3)n2c1` [Example 195, 2-(6-Methoxy-2-phenyl-indolizin-3-yl)-N-(6-methoxy-pyridin-3-yl)-2-oxo-acetamide], for which the MIC in the assay with Aspergillus flavus came to 0.4 µg/mL (≈ 0.996 µM); in assay [1], 6.25 µg/mL (≈ 15.6 µM); in the assay on Aspergillus niger it was 1.6 µg/mL (≈ 3.99 µM); in the assay on Aspergillus terreus it was 0.4 µg/mL (≈ 0.996 µM); in assay [2] it was 6.25 µg/mL (≈ 15.6 µM).

Consider `O=C(Nc1ccc(Cl)cc1)C(=O)c1c(-c2cccnc2)cc2ccccn12` [Example 197, N-(4-Chloro-phenyl)-2-oxo-2-(2-pyridin-3-yl-indolizin-3-yl)-acetamide], for which the MIC in the assay with Aspergillus flavus was determined as 0.4 µg/mL (≈ 1.06 µM); in assay [1], 3.1 µg/mL (≈ 8.25 µM); in the assay on Aspergillus niger it was 0.8 µg/mL (≈ 2.13 µM); in the assay with Aspergillus terreus it was 0.2 µg/mL (≈ 0.532 µM); in assay [2] it was 3.1 µg/mL (≈ 8.25 µM).

In the case of `O=C(Nc1ccc(F)cc1)C(=O)c1c(-c2cccnc2)cc2ccccn12` [Example 198, N-(4-Fluoro-phenyl)-2-oxo-2-(2-pyridin-3-yl-indolizin-3-yl)-acetamide], the MIC with Aspergillus flavus is 0.8 µg/mL (≈ 2.23 µM); in assay [1], 3.1 µg/mL (≈ 8.63 µM); in the assay on Aspergillus niger, 1.6 µg/mL (≈ 4.45 µM); with Aspergillus terreus, 0.8 µg/mL (≈ 2.23 µM); in assay [2], greater than 50 µg/mL.

In the case of `Cc1ccc(NC(=O)C(=O)c2c(-c3cccnc3)cc3ccc(C)cn23)cc1` [Example 199, 2-(6-Methyl-2-pyridin-3-yl-indolizin-3-yl)-2-oxo-N-p-tolyl-acetamide], the MIC in the assay with Aspergillus flavus was greater than 50 µg/mL; in assay [1], greater than 50 µg/mL; with Aspergillus niger, greater than 50 µg/mL; in the assay with Aspergillus terreus it was 1.6 µg/mL (≈ 4.33 µM); in assay [2], greater than 50 µg/mL.

As to `O=C(Nc1ccccc1Cl)C(=O)c1c(-c2ccccc2)cc2ccccn12` [Example 207, N-(2-Chloro-phenyl)-2-oxo-2-(2-phenyl-indolizin-3-yl)-acetamide], the MIC in the assay on Aspergillus flavus turned out to be 0.1 µg/mL (≈ 0.267 µM); in assay [1], 0.8 µg/mL (≈ 2.13 µM); with Aspergillus niger, 0.05 µg/mL (≈ 0.133 µM); in the assay with Aspergillus terreus, 0.05 µg/mL (≈ 0.133 µM); in assay [2], 0.8 µg/mL (≈ 2.13 µM).

Regarding `CCOC(=O)c1ccccc1NC(=O)C(=O)c1c(-c2ccccc2)cc2ccccn12` [Example 208, 2-[2-Oxo-2-(2-phenyl-indolizin-3-yl)-acetylamino]-benzoic acid ethyl ester], the MIC in the assay with Aspergillus flavus was greater than 50 µg/mL; in assay [1], greater than 50 µg/mL; in the assay on Aspergillus niger, greater than 50 µg/mL; with Aspergillus terreus it was 12.5 µg/mL (≈ 30.3 µM); in assay [2] it was greater than 50 µg/mL.

On to `O=C(Nc1ccc(F)cc1)C(=O)c1c(-c2ccc(F)cc2)cc2ccccn12` [Example 209, N-(4-Fluoro-phenyl)-2-[2-(4-fluoro-phenyl)-indolizin-3-yl]-2-oxo-acetamide], for which the MIC in the assay on Aspergillus flavus is 0.1 µg/mL (≈ 0.266 µM); in assay [1], greater than 50 µg/mL; in the assay on Aspergillus niger, 0.05 µg/mL (≈ 0.133 µM); in the assay on Aspergillus terreus, 0.05 µg/mL (≈ 0.133 µM); in assay [2], greater than 50 µg/mL.

Take `O=C(Nc1ccc(Cl)cc1)C(=O)c1c(-c2ccc(F)cc2)cc2ccccn12` [Example 210, N-(4-Chloro-phenyl)-2-[2-(4-fluoro-phenyl)-indolizin-3-yl]-2-oxo-acetamide]: the MIC with Aspergillus flavus is 0.05 µg/mL (≈ 0.127 µM); in assay [1], greater than 50 µg/mL; in the assay with Aspergillus niger, 0.05 µg/mL (≈ 0.127 µM); in the assay on Aspergillus terreus it was 0.05 µg/mL (≈ 0.127 µM); in assay [2], greater than 50 µg/mL.

In the case of `O=C(Nc1ccccc1F)C(=O)c1c(-c2cccnc2)cc2ccccn12` [Example 211, N-(2-Fluoro-phenyl)-2-oxo-2-(2-pyridin-3-yl-indolizin-3-yl)-acetamide], the MIC with Aspergillus flavus was found to be 0.4 µg/mL (≈ 1.11 µM); in assay [1], 6.25 µg/mL (≈ 17.4 µM); in the assay with Aspergillus niger, 1.6 µg/mL (≈ 4.45 µM); in the assay on Aspergillus terreus, 0.2 µg/mL (≈ 0.557 µM); in assay [2], 6.25 µg/mL (≈ 17.4 µM).

`Cc1ccccc1NC(=O)C(=O)c1c(-c2cccnc2)cc2ccccn12` [Example 213, 2-Oxo-2-(2-pyridin-3-yl-indolizin-3-yl)-N-o-tolyl-acetamide]: the MIC is 0.4 µg/mL (≈ 1.13 µM) in the assay with Aspergillus flavus; 6.25 µg/mL (≈ 17.6 µM) in assay [1]; 1.6 µg/mL (≈ 4.5 µM) in the assay on Aspergillus niger; 0.8 µg/mL (≈ 2.25 µM) in the assay with Aspergillus terreus; 6.25 µg/mL (≈ 17.6 µM) in assay [2].

Turning to `O=C(Nc1ccc(Br)cc1)C(=O)c1c(-c2cccnc2)cc2ccccn12` [Example 214, N-(4-Bromo-phenyl)-2-oxo-2-(2-pyridin-3-yl-indolizin-3-yl)-acetamide], the MIC in the assay with Aspergillus flavus was determined as 0.1 µg/mL (≈ 0.238 µM); in assay [1], 0.8 µg/mL (≈ 1.9 µM); in the assay on Aspergillus niger, 0.4 µg/mL (≈ 0.952 µM); in the assay with Aspergillus terreus, 0.1 µg/mL (≈ 0.238 µM); in assay [2], 0.8 µg/mL (≈ 1.9 µM).

With `Cc1cccc(NC(=O)C(=O)c2c(-c3cccnc3)cc3ccccn23)c1` [Example 215, 2-Oxo-2-(2-pyridin-3-yl-indolizin-3-yl)-N-m-tolyl-acetamide], the MIC in the assay with Aspergillus flavus worked out at 0.05 µg/mL (≈ 0.141 µM); in assay [1], 0.8 µg/mL (≈ 2.25 µM); in the assay with Aspergillus niger, 0.4 µg/mL (≈ 1.13 µM); in the assay on Aspergillus terreus it was 0.05 µg/mL (≈ 0.141 µM); in assay [2], 0.4 µg/mL (≈ 1.13 µM).

Take `O=C(Nc1ccccc1Cl)C(=O)c1c(-c2cccnc2)cc2ccccn12` [Example 216, N-(2-Chloro-phenyl)-2-oxo-2-(2-pyridin-3-yl-indolizin-3-yl)-acetamide]: the MIC was 0.2 µg/mL (≈ 0.532 µM) in the assay with Aspergillus flavus; 6.25 µg/mL (≈ 16.6 µM) in assay [1]; 0.4 µg/mL (≈ 1.06 µM) in the assay with Aspergillus niger; 0.2 µg/mL (≈ 0.532 µM) in the assay with Aspergillus terreus; 6.25 µg/mL (≈ 16.6 µM) in assay [2].

On to `CC(=O)c1ccc(NC(=O)C(=O)c2c(-c3cccnc3)cc3ccccn23)cc1` [Example 217, N-(4-Acetyl-phenyl)-2-oxo-2-(2-pyridin-3-yl-indolizin-3-yl)-acetamide], for which the MIC in the assay with Aspergillus flavus was 0.8 µg/mL (≈ 2.09 µM); in assay [1] it was greater than 50 µg/mL; in the assay on Aspergillus niger, greater than 50 µg/mL; in the assay with Aspergillus terreus it was 3.1 µg/mL (≈ 8.09 µM); in assay [2], greater than 50 µg/mL.

On to `O=C(C(=O)N1CCc2ccccc21)c1c(-c2ccccc2)cc2ccccn12` [Example 218, 1-(2,3-Dihydro-indol-1-yl)-2-(2-phenyl-indolizin-3-yl)-ethane-1,2-dione], for which the MIC in the assay on Aspergillus flavus was greater than 50 µg/mL; in assay [1] it was greater than 50 µg/mL; in the assay on Aspergillus niger, 0.4 µg/mL (≈ 1.09 µM); in the assay with Aspergillus terreus, greater than 50 µg/mL; in assay [2], greater than 50 µg/mL.

`CS(=O)(=O)Nc1ccc(NC(=O)C(=O)c2c(-c3ccccc3)cc3ccccn23)cc1` [Example 219, N-(4-Methanesulfonylamino-phenyl)-2-oxo-2-(2-phenyl-indolizin-3-yl)-acetamide]: the MIC is greater than 50 µg/mL in the assay on Aspergillus flavus; 12.5 µg/mL (≈ 28.8 µM) in assay [1]; 3.1 µg/mL (≈ 7.15 µM) in the assay with Aspergillus niger; 6.25 µg/mL (≈ 14.4 µM) with Aspergillus terreus; 50 µg/mL (≈ 115 µM) in assay [2].
